Source: patent US10286034B2, “Uses of bremelanotide in therapy for female sexual dysfunction” (Palatin Technologies, Inc., priority 2012, dated 2019)
Marks after values point to notes of the source that are not given here.

Key:
[1] = Example 1: ambulatory blood pressure monitoring after in-clinic dose; assay type: in vivo, human; conditions: for Pulse: treatment group difference (from placebo) in mean change: in bpm; for DBP: treatment group difference (from placebo) in mean change / SBP: treatment group difference (from placebo) in mean change: in mmHg (unit assumed); for HR-BP Product: treatment group difference (from placebo) in mean change: in mmHg·bpm (unit assumed)
Procedure: Ambulatory blood pressure monitoring was conducted following both placebo and randomized treatment group in-clinic administrations. Three periods of ambulatory blood pressure monitoring were included, the first period was from before to 24 hours after a single, in-clinic dose of placebo (to establish a baseline); the second and third periods occurred from before to 24 hours after each of 2 single, in-clinic doses of double-blind treatment, administered within 14 days of each other. Blood samples for pharmacokinetic analysis were collected before and at 0.5, 1.0, and 2.0 hours after each in-clinic bremelanotide single-dose treatment (double-blind only), to permit analysis of concentration-response relationships.
Mean changes in blood pressure were characterized in all subjects based on sequential supervised dosing of single-blind subcutaneous placebo and two doses of randomized study drug. The primary analysis for mean changes was the difference between treatment groups in the change from single-blind placebo to randomized drug (Visit 2 vs. Visits 5/7). There were between 86 to 100 subjects in each dose group.
Although there were an increased number of outliers for maximal changes from baseline in systolic blood pressure in drug-treated patients, the duration of these events was quite limited. The interrogation interval during ambulatory blood pressure monitoring assessments of 15 minutes allowed definition of the maximal duration of such excursions. […] The clinical significance of such changes, if any, is small.

[2] = test system: premenopausal and postmenopausal women with FSAD; assay: Intranasal Phase 2 studies: efficacy, adverse events, discontinuation; assay type: in vivo, human
Procedure: In the bremelanotide premenopausal arm, 42.5% of the subjects were discontinued due to hypertension, nausea, vomiting or myalgia. Subjects received a 10 mg intranasal dose of bremelanotide, with premenopausal subjects determined to have a mean plasma concentration of 88.5±51.9 ng/mL and a % CV of 58.6, and postmenopausal subjects determined to have a mean plasma concentration of 93.2±68.5 ng/mL and a % CV of 73.5. The minimum and maximum plasma concentration levels for all women at thirty minutes post dose range from 0.0 ng/mL to 207.0 ng/mL.
Results with premenopausal women in a placebo-controlled, randomized, double-blind, parallel group, at-home exploratory study to evaluate the efficacy and safety of intranasally administered bremelanotide in subjects with female sexual arousal disorder (FSAD) were compared against results in the study of Example 1. In the intranasal study, a total of 76 premenopausal subjects were randomized, with 40 subjects to receive bremelanotide and 36 to receive placebo. Twenty-two subjects treated with bremelanotide and 29 treated with placebo completed the study, with 16 subjects who received bremelanotide (40%) discontinuing from the study due to an adverse event. This compares to the study of Example 1, in which as shown by Table 6 only 8% of subjects on the 1.75 mg subcutaneous dose discontinuing due to an adverse event.

[3] = 0.75 mg SC, interval 0-24 h, V5
[4] = 0.75 mg SC, interval 0-24 h, V7
[5] = 0.75 mg SC, interval 8-24 h, V5
[6] = 0.75 mg SC, interval 8-24 h, V7
[7] = 1.25 mg SC, interval 0-24 h, V5
[8] = 1.25 mg SC, interval 0-24 h, V7
[9] = 1.25 mg SC, interval 8-24 h, V5
[10] = 1.25 mg SC, interval 8-24 h, V7
[11] = 1.75 mg SC, interval 0-24 h, V5
[12] = 1.75 mg SC, interval 0-24 h, V7
[13] = 1.75 mg SC, interval 8-24 h, V5
[14] = 1.75 mg SC, interval 8-24 h, V7
[15] = 10 mg intranasal, premenopausal, 40 subjects randomized

CCCC[C@H](NC(C)=O)C(=O)N[C@H]1CC(=O)NCCCC[C@@H](C(=O)O)NC(=O)[C@H](Cc2c[nH]c3ccccc23)NC(=O)[C@H](CCCNC(=N)N)NC(=O)[C@@H](Cc2ccccc2)NC(=O)[C@H](Cc2c[nH]cn2)NC1=O [bremelanotide, Ac-Nle-cyclo(-Asp-His-D-Phe-Arg-Trp-Lys)-OH]
Pulse: treatment group difference (from placebo) in mean change ([1]; 0.75 mg SC, interval 0-4 h, V5): −5.2*
DBP: treatment group difference (from placebo) in mean change ([1]; 0.75 mg SC, interval 0-4 h, V5): 1.5
SBP: treatment group difference (from placebo) in mean change ([1]; 0.75 mg SC, interval 0-4 h, V5): 1.8
HR-BP Product: treatment group difference (from placebo) in mean change ([1]; 0.75 mg SC, interval 0-4 h, V5): −492.8*
Pulse: treatment group difference (from placebo) in mean change ([1]; 0.75 mg SC, interval 0-4 h, V7): −4.8*
DBP: treatment group difference (from placebo) in mean change ([1]; 0.75 mg SC, interval 0-4 h, V7): 0.6
SBP: treatment group difference (from placebo) in mean change ([1]; 0.75 mg SC, interval 0-4 h, V7): 1.1
HR-BP Product: treatment group difference (from placebo) in mean change ([1]; 0.75 mg SC, interval 0-4 h, V7): −491.9*
Pulse: treatment group difference (from placebo) in mean change [1, 3]: −2.2*
DBP: treatment group difference (from placebo) in mean change [1, 3]: 1.1*
SBP: treatment group difference (from placebo) in mean change [1, 3]: 1.1
HR-BP Product: treatment group difference (from placebo) in mean change [1, 3]: −187.7
Pulse: treatment group difference (from placebo) in mean change [1, 4]: −1.6
DBP: treatment group difference (from placebo) in mean change [1, 4]: 1.3*
SBP: treatment group difference (from placebo) in mean change [1, 4]: 1.5
HR-BP Product: treatment group difference (from placebo) in mean change [1, 4]: −82.3
Pulse: treatment group difference (from placebo) in mean change ([1]; 0.75 mg SC, interval 4-8 h, V5): −6.2*
DBP: treatment group difference (from placebo) in mean change ([1]; 0.75 mg SC, interval 4-8 h, V5): 1.3
SBP: treatment group difference (from placebo) in mean change ([1]; 0.75 mg SC, interval 4-8 h, V5): 0.9
HR-BP Product: treatment group difference (from placebo) in mean change ([1]; 0.75 mg SC, interval 4-8 h, V5): −676.5*
Pulse: treatment group difference (from placebo) in mean change ([1]; 0.75 mg SC, interval 4-8 h, V7): −5.5*
DBP: treatment group difference (from placebo) in mean change ([1]; 0.75 mg SC, interval 4-8 h, V7): 1.7
SBP: treatment group difference (from placebo) in mean change ([1]; 0.75 mg SC, interval 4-8 h, V7): 1.6
HR-BP Product: treatment group difference (from placebo) in mean change ([1]; 0.75 mg SC, interval 4-8 h, V7): −503.3*
Pulse: treatment group difference (from placebo) in mean change [1, 5]: −0.4
DBP: treatment group difference (from placebo) in mean change [1, 5]: 1.0
SBP: treatment group difference (from placebo) in mean change [1, 5]: 0.9
HR-BP Product: treatment group difference (from placebo) in mean change [1, 5]: 5.2
Pulse: treatment group difference (from placebo) in mean change [1, 6]: 0.1
DBP: treatment group difference (from placebo) in mean change [1, 6]: 1.3*
SBP: treatment group difference (from placebo) in mean change [1, 6]: 1.6
HR-BP Product: treatment group difference (from placebo) in mean change [1, 6]: 114.9
Pulse: treatment group difference (from placebo) in mean change ([1]; 1.25 mg SC, interval 0-4 h, V5): −5.2*
DBP: treatment group difference (from placebo) in mean change ([1]; 1.25 mg SC, interval 0-4 h, V5): 3.0*
SBP: treatment group difference (from placebo) in mean change ([1]; 1.25 mg SC, interval 0-4 h, V5): 2.4*
HR-BP Product: treatment group difference (from placebo) in mean change ([1]; 1.25 mg SC, interval 0-4 h, V5): −436.4*
Pulse: treatment group difference (from placebo) in mean change ([1]; 1.25 mg SC, interval 0-4 h, V7): −6.1*
DBP: treatment group difference (from placebo) in mean change ([1]; 1.25 mg SC, interval 0-4 h, V7): 2.2*
SBP: treatment group difference (from placebo) in mean change ([1]; 1.25 mg SC, interval 0-4 h, V7): 2.1*
HR-BP Product: treatment group difference (from placebo) in mean change ([1]; 1.25 mg SC, interval 0-4 h, V7): −583.3*
Pulse: treatment group difference (from placebo) in mean change [1, 7]: −2.9*
DBP: treatment group difference (from placebo) in mean change [1, 7]: 1.9*
SBP: treatment group difference (from placebo) in mean change [1, 7]: 1.1
HR-BP Product: treatment group difference (from placebo) in mean change [1, 7]: −265.9
Pulse: treatment group difference (from placebo) in mean change [1, 8]: −2.6*
DBP: treatment group difference (from placebo) in mean change [1, 8]: 1.7*
SBP: treatment group difference (from placebo) in mean change [1, 8]: 1.6*
HR-BP Product: treatment group difference (from placebo) in mean change [1, 8]: −206.5
Pulse: treatment group difference (from placebo) in mean change ([1]; 1.25 mg SC, interval 4-8 h, V5): −6.1*
DBP: treatment group difference (from placebo) in mean change ([1]; 1.25 mg SC, interval 4-8 h, V5): 2.2*
SBP: treatment group difference (from placebo) in mean change ([1]; 1.25 mg SC, interval 4-8 h, V5): 1.4
HR-BP Product: treatment group difference (from placebo) in mean change ([1]; 1.25 mg SC, interval 4-8 h, V5): −621.0*
Pulse: treatment group difference (from placebo) in mean change ([1]; 1.25 mg SC, interval 4-8 h, V7): −6.5*
DBP: treatment group difference (from placebo) in mean change ([1]; 1.25 mg SC, interval 4-8 h, V7): 0.9
SBP: treatment group difference (from placebo) in mean change ([1]; 1.25 mg SC, interval 4-8 h, V7): 1.3*
HR-BP Product: treatment group difference (from placebo) in mean change ([1]; 1.25 mg SC, interval 4-8 h, V7): −669.7*
Pulse: treatment group difference (from placebo) in mean change [1, 9]: −1.5
DBP: treatment group difference (from placebo) in mean change [1, 9]: 1.4*
SBP: treatment group difference (from placebo) in mean change [1, 9]: 0.7
HR-BP Product: treatment group difference (from placebo) in mean change [1, 9]: −127.4
Pulse: treatment group difference (from placebo) in mean change [1, 10]: −0.7
DBP: treatment group difference (from placebo) in mean change [1, 10]: 1.7*
SBP: treatment group difference (from placebo) in mean change [1, 10]: 1.5*
HR-BP Product: treatment group difference (from placebo) in mean change [1, 10]: 4.2
Pulse: treatment group difference (from placebo) in mean change ([1]; 1.75 mg SC, interval 0-4 h, V5): −4.6*
DBP: treatment group difference (from placebo) in mean change ([1]; 1.75 mg SC, interval 0-4 h, V5): 3.2*
SBP: treatment group difference (from placebo) in mean change ([1]; 1.75 mg SC, interval 0-4 h, V5): 3.1*
HR-BP Product: treatment group difference (from placebo) in mean change ([1]; 1.75 mg SC, interval 0-4 h, V5): −305.9
Pulse: treatment group difference (from placebo) in mean change ([1]; 1.75 mg SC, interval 0-4 h, V7): −4.7*
DBP: treatment group difference (from placebo) in mean change ([1]; 1.75 mg SC, interval 0-4 h, V7): 2.6*
SBP: treatment group difference (from placebo) in mean change ([1]; 1.75 mg SC, interval 0-4 h, V7): 2.5*
HR-BP Product: treatment group difference (from placebo) in mean change ([1]; 1.75 mg SC, interval 0-4 h, V7): −375.4*
Pulse: treatment group difference (from placebo) in mean change [1, 11]: −2.2*
DBP: treatment group difference (from placebo) in mean change [1, 11]: 1.9*
SBP: treatment group difference (from placebo) in mean change [1, 11]: 1.6
HR-BP Product: treatment group difference (from placebo) in mean change [1, 11]: −139.1
Pulse: treatment group difference (from placebo) in mean change [1, 12]: −2.2*
DBP: treatment group difference (from placebo) in mean change [1, 12]: 1.8*
SBP: treatment group difference (from placebo) in mean change [1, 12]: 1.3
HR-BP Product: treatment group difference (from placebo) in mean change [1, 12]: −184.1
Pulse: treatment group difference (from placebo) in mean change ([1]; 1.75 mg SC, interval 4-8 h, V5): −6.6*
DBP: treatment group difference (from placebo) in mean change ([1]; 1.75 mg SC, interval 4-8 h, V5): 2.3*
SBP: treatment group difference (from placebo) in mean change ([1]; 1.75 mg SC, interval 4-8 h, V5): 2.1
HR-BP Product: treatment group difference (from placebo) in mean change ([1]; 1.75 mg SC, interval 4-8 h, V5): −608.1*
Pulse: treatment group difference (from placebo) in mean change ([1]; 1.75 mg SC, interval 4-8 h, V7): −6.6*
DBP: treatment group difference (from placebo) in mean change ([1]; 1.75 mg SC, interval 4-8 h, V7): 2.2*
SBP: treatment group difference (from placebo) in mean change ([1]; 1.75 mg SC, interval 4-8 h, V7): 2.2
HR-BP Product: treatment group difference (from placebo) in mean change ([1]; 1.75 mg SC, interval 4-8 h, V7): −624.5*
Pulse: treatment group difference (from placebo) in mean change [1, 13]: −0.8
DBP: treatment group difference (from placebo) in mean change [1, 13]: 1.4*
SBP: treatment group difference (from placebo) in mean change [1, 13]: 0.9
HR-BP Product: treatment group difference (from placebo) in mean change [1, 13]: −23.7
Pulse: treatment group difference (from placebo) in mean change [1, 14]: −0.5
DBP: treatment group difference (from placebo) in mean change [1, 14]: 1.4
SBP: treatment group difference (from placebo) in mean change [1, 14]: 0.6
HR-BP Product: treatment group difference (from placebo) in mean change [1, 14]: −31.3
maximal change in systolic pressure ([1]; 1.75 mg dosing group, average of Visits 5 and 7): 3.15 mm Hg
change in blood pressure ([1]; drug treated subjects, predominantly within 4 hours of dosing): ~2 mm Hg
subjects discontinuing from the study due to an adverse event, number [2, 15]: 16
subjects discontinuing from the study due to an adverse event, percent [2, 15]: 40%
subjects reporting at least one adverse event ([2]; intranasal, postmenopausal subjects): 100%
sexual desire and arousal compared to placebo ([2]; intranasal, premenopausal and postmenopausal women with FSAD, two Phase 2 trials): increase sexual desire and arousal compared to placebo
subjects discontinued due to hypertension, nausea, vomiting or myalgia ([2]; intranasal, premenopausal arm): 42.5%
subjects reporting at least one adverse event ([2]; intranasal, premenopausal subjects): 92.5%
